Measured values from publication PMC5951806, “Rapid labelling and covalent inhibition of intracellular native proteins using ligand-directed N-acyl-N-alkyl sulfonamide” (Nature Communications, 2018).

How the values were obtained:
Test in all cases: TMT LC-MSMS of 11-labelled proteins
Format in all cases: cell-based
[1] = target: T1, Isoform 2 of Fructose-bisphosphate aldolase A (ALDOA) (Homo sapiens, UniProt P04075)
T1 sequence (P04075 2-364 limits assumed): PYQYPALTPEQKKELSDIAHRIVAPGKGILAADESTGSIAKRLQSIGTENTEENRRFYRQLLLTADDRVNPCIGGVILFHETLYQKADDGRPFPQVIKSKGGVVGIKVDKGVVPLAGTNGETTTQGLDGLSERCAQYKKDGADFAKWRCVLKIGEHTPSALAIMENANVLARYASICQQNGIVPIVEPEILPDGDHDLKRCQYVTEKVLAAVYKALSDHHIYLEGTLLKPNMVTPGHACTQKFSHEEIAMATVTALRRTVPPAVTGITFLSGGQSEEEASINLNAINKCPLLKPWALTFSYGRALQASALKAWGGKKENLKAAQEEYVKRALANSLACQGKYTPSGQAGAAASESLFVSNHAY

[2] = target: Actin, cytoplasmic 1 (ACTB) (Homo sapiens, UniProt P60709)
Endoplasmin (HSP90B1) = Endoplasmin (HSP90B1) (Homo sapiens, UniProt P14625)
[3] = target: Isoform 2 of Elongation factor 1-gamma (EEF1G) (Homo sapiens, UniProt P26641); conditions: SKBR3 cells; for Abundance Ratio: (11) / (DMSO): 11 0.5 µM 3 h vs DMSO; for Abundance Ratio: (11) / (11 with PU-H71): 11 0.5 µM 3 h vs with PU-H71 10 µM
[4] = sheet Exp1, SKBR3 cells, 11 0.5 µM 3 h vs DMSO
[5] = sheet Exp1, SKBR3 cells, 11 0.5 µM 3 h vs with PU-H71 10 µM
[6] = sheet Merged, SKBR3 cells, 11 0.5 µM 3 h vs DMSO
[7] = sheet Merged, SKBR3 cells, 11 0.5 µM 3 h vs with PU-H71 10 µM

Chain of Isoform 2 of Elongation factor 1-gamma (EEF1G) (P26641 5-437 limits assumed): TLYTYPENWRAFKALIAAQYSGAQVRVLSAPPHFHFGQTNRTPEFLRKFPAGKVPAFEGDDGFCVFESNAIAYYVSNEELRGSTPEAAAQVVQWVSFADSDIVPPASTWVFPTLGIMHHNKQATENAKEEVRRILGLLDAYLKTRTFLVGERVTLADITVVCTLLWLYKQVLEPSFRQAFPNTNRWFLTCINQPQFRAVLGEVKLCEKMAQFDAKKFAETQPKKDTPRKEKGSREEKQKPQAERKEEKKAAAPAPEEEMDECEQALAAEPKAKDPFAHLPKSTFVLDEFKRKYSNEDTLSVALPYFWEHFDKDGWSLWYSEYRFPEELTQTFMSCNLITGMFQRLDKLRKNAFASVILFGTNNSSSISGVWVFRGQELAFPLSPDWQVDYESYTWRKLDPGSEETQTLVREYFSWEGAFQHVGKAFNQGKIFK
Chain of Endoplasmin (HSP90B1) (P14625 22-803): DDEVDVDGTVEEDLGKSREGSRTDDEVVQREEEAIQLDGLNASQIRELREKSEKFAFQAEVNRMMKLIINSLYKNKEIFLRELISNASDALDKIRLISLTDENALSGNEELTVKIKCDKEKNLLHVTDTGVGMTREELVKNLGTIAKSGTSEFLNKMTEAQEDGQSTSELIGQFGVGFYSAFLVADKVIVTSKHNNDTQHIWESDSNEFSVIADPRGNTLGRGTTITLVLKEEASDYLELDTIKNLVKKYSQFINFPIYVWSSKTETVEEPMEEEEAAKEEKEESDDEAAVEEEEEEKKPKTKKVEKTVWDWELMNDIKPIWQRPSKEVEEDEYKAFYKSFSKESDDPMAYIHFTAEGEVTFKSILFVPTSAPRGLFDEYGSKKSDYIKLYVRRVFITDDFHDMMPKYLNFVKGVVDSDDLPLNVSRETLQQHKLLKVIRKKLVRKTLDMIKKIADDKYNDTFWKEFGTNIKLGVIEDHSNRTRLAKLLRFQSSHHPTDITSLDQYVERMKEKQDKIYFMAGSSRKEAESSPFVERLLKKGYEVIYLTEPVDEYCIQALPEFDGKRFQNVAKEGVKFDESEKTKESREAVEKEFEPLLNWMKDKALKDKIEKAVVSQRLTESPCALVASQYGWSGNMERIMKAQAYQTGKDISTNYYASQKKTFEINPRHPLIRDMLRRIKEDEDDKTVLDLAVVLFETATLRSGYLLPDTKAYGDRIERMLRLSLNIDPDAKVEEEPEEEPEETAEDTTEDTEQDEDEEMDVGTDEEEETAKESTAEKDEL

- Abundance Ratio: (11) / (11 with PU-H71) ([1]; Exp3, ALDOA): 0.706
- Abundance Ratio: (11) / (DMSO) ([1]; Exp3, ALDOA): 3.817
- Abundances (Grouped): 11 ([1]; Exp3, ALDOA): 494.7
- Abundances (Grouped): 11 with PU-H71 ([1]; Exp3, ALDOA): 700.9
- Abundance Ratio: (11) / (DMSO) [1, 4]: 4.85
- Abundance Ratio: (11) / (11 with PU-H71) [1, 5]: 0.675
- Abundance Ratio: (11) / (11 with PU-H71) ([1]; sheet Exp2, ALDOA): 0.724
- Abundance Ratio: (11) / (DMSO) ([1]; sheet Exp2, ALDOA): 4.699
- Abundances (Grouped): 11 ([1]; sheet Exp2, ALDOA): 363.2
- Abundances (Grouped): 11 with PU-H71 ([1]; sheet Exp2, ALDOA): 502
- Abundance Ratio: (11) / (DMSO) [1, 6]: 4.85
- Abundance Ratio: (11) / (11 with PU-H71) [1, 7]: 0.675
- Abundance Ratio: (11) / (11 with PU-H71) ([2]; Exp3, ACTB): 0.843
- Abundance Ratio: (11) / (DMSO) ([2]; Exp3, ACTB): 2.666
- Abundances (Grouped): 11 ([2]; Exp3, ACTB): 445.7
- Abundances (Grouped): 11 with PU-H71 ([2]; Exp3, ACTB): 528.9
- Abundance Ratio: (11) / (DMSO) [2, 4]: 3.266
- Abundance Ratio: (11) / (11 with PU-H71) [2, 5]: 0.822
- Abundance Ratio: (11) / (11 with PU-H71) ([2]; sheet Exp2, ACTB): 0.825
- Abundance Ratio: (11) / (DMSO) ([2]; sheet Exp2, ACTB): 3.623
- Abundances (Grouped): 11 ([2]; sheet Exp2, ACTB): 493.5
- Abundances (Grouped): 11 with PU-H71 ([2]; sheet Exp2, ACTB): 598.3
- Abundance Ratio: (11) / (DMSO) [2, 6]: 3.272
- Abundance Ratio: (11) / (11 with PU-H71) [2, 7]: 0.843
- Abundance Ratio: (11) / (11 with PU-H71) (Endoplasmin (HSP90B1); Exp3, HSP90B1): 1.101
- Abundance Ratio: (11) / (DMSO) (Endoplasmin (HSP90B1); Exp3, HSP90B1): 2.844
- Abundances (Grouped): 11 (Endoplasmin (HSP90B1); Exp3, HSP90B1): 158.7
- Abundances (Grouped): 11 with PU-H71 (Endoplasmin (HSP90B1); Exp3, HSP90B1): 144.1
- Abundance Ratio: (11) / (DMSO) (Endoplasmin (HSP90B1); [4]): 6.226
- Abundance Ratio: (11) / (11 with PU-H71) (Endoplasmin (HSP90B1); [5]): 1.266
- Abundance Ratio: (11) / (11 with PU-H71) (Endoplasmin (HSP90B1); sheet Exp2, HSP90B1): 0.932
- Abundance Ratio: (11) / (DMSO) (Endoplasmin (HSP90B1); sheet Exp2, HSP90B1): 2.232
- Abundances (Grouped): 11 (Endoplasmin (HSP90B1); sheet Exp2, HSP90B1): 31.7
- Abundances (Grouped): 11 with PU-H71 (Endoplasmin (HSP90B1); sheet Exp2, HSP90B1): 34
- Abundance Ratio: (11) / (DMSO) (Endoplasmin (HSP90B1); [6]): 6.226
- Abundance Ratio: (11) / (11 with PU-H71) (Endoplasmin (HSP90B1); [7]): 1.266
- Abundance Ratio: (11) / (DMSO) ([3]; sheet Exp1): 4.152
- Abundance Ratio: (11) / (11 with PU-H71) ([3]; sheet Exp1): 0.818
- Abundance Ratio: (11) / (DMSO) ([3]; sheet Merged): 1.23
- Abundance Ratio: (11) / (11 with PU-H71) ([3]; sheet Merged): 0.746
Compound: CC(=O)Oc1ccc2c(c1)Oc1cc(OC(C)=O)ccc1C21OC(=O)c2cc(C(=O)NCCOCCOCCNC(=O)CCCC(=O)N(CC#N)S(=O)(=O)c3ccc(C(=O)NCCCn4c(Sc5cc6c(cc5I)OCO6)nc5c(N)ncnc54)cc3)ccc21 [compound 11]
